From patent US12721815B2, “Freeze-dried exosome composition and uses thereof” (AVECIN-Biopharma Oy, priority 2022, dated 2026)

What was measured:
human dermal fibroblasts [1] = assay: Collagen production, human collagen type I ELISA kit; type: cell-based; conditions: incubated 48 h, FIG. 6(c)
Description: Also, collagen production was measured using a human collagen type I ELIZA kit. Human dermal fibroblasts were incubated with the exosome samples for 48 h. 100 μl of cell culture media was collected from each sample and incubated with 100 μl of biotinylated detection antibody for 1 h at 37° C. Samples were then washed and incubated with 100 μl of horseradish peroxidase (HRP) conjugate working solution. Stop solution was added and optical density was measured at 450 nm with a Plate Reader.

human dermal fibroblasts [2] = assay: MTT assay (fibroblast proliferation); type: cell-based; conditions: FIG. 6(b)
Description: The effect of the exosomes on the proliferation of human dermal fibroblasts was measured by a 3-[4.5-Dimethylthiazol-2-yl]-2.5-diphenyltetrazolium bromide ([…]; Life technologies) assay. Briefly, human dermal fibroblast cells are seeded in 96-well plates at an initial density of 5×10^3 cells/well for 24 h and then are treated with 100 μg/mL of exosomes for 48 hours. Cells are incubated with 0.5 mg/mL of MTT for 3-5 h and then 100 μl DMSO is added to each well and the optical density is measured at 540 nm.

human dermal fibroblasts [3] = assay: Wound scratch assay (relative wound density); type: cell-based; conditions: FIG. 6(a)
Description: Human dermal fibroblasts are seeded in 96 well plates at 2.4×10^4 cells/well. A cell-free area is then created in a confluent monolayer by physical exclusion through mechanical damage using a […] pipette tip. The culture medium is replaced immediately with a fresh 0.5% EV-free serum-supplemented culture medium containing 100 μg/ml of each exosome preparation tested. Three positions per scratch are imaged for 48 hours. Relative wound density is analysed by measuring the wound area over the healing time. All scratch assays are performed in triplicate.

[4] = Freeze-drying apple exosomes using trehalose, LMW HA and their combination (TEM, NTA); type: physicochemical; conditions: rehydrated after freeze-drying, FIG. 5
Description: For TEM imaging, exosomes are fixed with 4.0% paraformaldehyde (PFA) in sodiumphosphate buffer and stained with 2% neutral uranyl acetate with embedding in uranyl acetate and methylcellulose mixture. Exosomes are viewed with transmission EM using Jeol JEM-1400 (Jeol Ltd., Tokyo, Japan) operating at 80 kV. Images are taken with Gatan Orius SC 1000B CCD-camera (Gatan Inc., USA) with 4008×2672 px image size and no binning.
Particle number and size distribution of the exosome is measured by NTA instrument LM14C (NanoSight LTD., London, UK) equipped with blue (404 nm, 70 mW) laser and sCMOS camera. Data are analysed with Nanosight software v3.0, using threshold 5 and gain 10.
To test the preservation of exosome functionality and integrity during the lyophilization process, two cryoprotectants (trehalose and LMW HA) in four different cryoprotectant combinations were used, namely: 50 mM trehalose, 100 mM trehalose, 5% LMW HA, and 50 mM trehalose +2.5% LMW HA. Lyophilization solutions were prepared using PBS. The overall osmolality of the lyophilization solutions was maintained at 290 mOsm/kg. For the freeze-drying experiments, isolated exosomes (10^10-10^11 particle/ml) were suspended in cryoprotectant solution. 5 ml of each sample was prepared. Each solution was divided into 3 polypropylene microcentrifuge tubes, each tube containing 1.2 ml of lyophilization solution supplied with exosomes. […]

[5] = Lyophilization of exosomes with different cryoprotectants of Table 1 (BCA kit, TEM, NTA); type: physicochemical; conditions: FIG. 4
Description: The protein concentration of isolated exosomes is measured by BCA protein assay kit. Isolated exosomes were characterized by fluorescent staining, Transmission electron microscopy (TEM), and Nanoparticle Tracking Analysis (NTA).
Different cryoprotectant components namely trehalose, mannitol, sorbitol, sucrose, glucose and HA (both low Mw (LW) and high Mw (HMW)), either alone or in combination with HA or glycine (see Table 1) were tested for exosome viability outcome after lyophilization. PBS (290 mOsm/kg) was used as the solvent. The LMW HA used for the examples described herein is LMW HA having a Mw lower than 10 kDa. Isolated exosomes (1 mg/ml) were dissolved in PBS solution and then mixed with cryoprotectant solution in the ratio of 1 part exosomes to 1, 3, 5, or 10 parts of cryoprotectant.
Cryoprotectant solutions were prepared using phosphate-buffered saline (PBS) while the overall osmolality of the lyophilization solutions was maintained at 290 mOsm/kg. Isolated exosomes (10^10-10^11 particle/ml) were suspended in cryoprotectant solution ranging from 1 part of exosome suspension with 3 parts of cryoprotectant solution, to, 3 parts of exosome suspension with 1 part of cryoprotectant solution. Exosomes were lyophilized and then morphology of retrieved exosomes was visualized by TEM while size and concentration were measured by NTA (see FIG. 4). […]

Row | aggregation, size and concentration of lyophilized apple exosomes (result in words) [4] | Compound | collagen production by fibroblasts (result in words) (human dermal fibroblasts [1]) | fibroblast proliferation, lyophilised versus non-lyophilised exosomes (result in words) (human dermal fibroblasts [2]) | relative wound density, lyophilised versus non-lyophilised exosomes (result in words) (human dermal fibroblasts [3]) | exosome concentration, morphology, aggregation after lyophilization (result in words) [5]
1 | – | Hyaluronic acid (LMW) [hyaluronic acid at low-molecular-weight] | positive role | positive role | positive role | –
2 | no exosome aggregation | OC[C@H]1O[C@H](O[C@H]2O[C@H](CO)[C@@H](O)[C@H](O)[C@H]2O)[C@H](O)[C@@H](O)[C@@H]1O [trehalose, Trehalose] | – | – | – | best results as a single component cryoprotectant
